Results published in patent US9814699B2, “Chemical compounds” (Janssen Pharmaceuticals, Inc., priority 2009, dated 2017).

Assays:
[1] = test system: HCV genotype 1a subgenomic replicon; assay: HCV replicon assay, genotype 1a subgenomic replicon (luciferase); format: cell-based; settings: Hepatitis C virus; genotype 1a replicon stable cell line, luciferase activity measured 48 hours later; read-out: Replicon 1A pEC50 (converted)
Experimental: (§1) Protocol for Testing and Data Analysis of Compounds in the HCV Replicon Assay
(§2) Compounds were assayed for activity against HCV using the genotype 1a and 1b subgenomic replicon model systems. Stable cell lines bearing the genotype 1a and 1b replicons were used for screening of compounds. Both replicons are bicistronic and contain the firefly luciferase gene. The ET cell line is stably transfected with RNA transcripts harboring a I389luc-ubi-neo/NS3-3′/ET replicon with firefly luciferase-ubiquitin-neomycin phosphotransferase fusion protein and EMCV-IRES driven NS3-5B polyprotein containing the cell culture adaptive mutations (E1202G; T1280I; K1846T) (Krieger at al, 2001 and unpublished). The genotype 1a replicon is a stable cell line licensed from Apath LLC, modified to contain the firefly luciferase gene. The cells were grown in DMEM, supplemented with 10% fetal calf serum, 2 mM Glutamine, Penicillin (100 IU/mL)/Streptomycin (100 μg/mL), 1× nonessential amino acids, and 250-500 μg/mL G418 (“Geneticin”). They were all available through Life Technologies (Bethesda, Md.). The cells were plated at 5×10^3 cells/well in 384 well plates containing compounds. The final concentration of compounds ranged between 0.03 pM to 50 μm and the final DMSO concentration of 0.5-1%.
(§3) Luciferase activity was measured 48 hours later by adding a Steady glo reagent (Promega, Madison, Wis.). Percent inhibition of replication data was plotted relative to no compound control. Under the same condition, cytotoxicity of the compounds was determined using cell titer glo (Promega, Madison, Ws). EC50s were determined from an 11 point dose response curve using 3-4-fold serial dilution for each compound, which spans a concentration range >1000 fold. The level of inhibition for each compound was determined with Activity Base or with BioAssay plus the Excel XC50 module. Percent inhibition was determined with the following equation where the cross-talk corrected value is the value from the test well, the compound positive control mean is the average value of the wells with no compound present, and the DMSO negative control mean is the average value of the wells with DMSO but no cells present.
(§4) [formula] These normalized values are exported to EC50 where they are plotted against the molar compound concentrations using the standard four parameter logistic equation: […]

[2] = test system: HCV genotype 1b subgenomic replicon; assay: HCV replicon assay, genotype 1b subgenomic replicon (ET cell line, luciferase); format: cell-based; settings: Hepatitis C virus; genotype 1b replicon ET cell line, luciferase activity measured 48 hours later; read-out: Replicon 1B pEC50 (converted)
Experimental: as §1, §2, §3, §4

Row | Compound | EC50 [1] [nM] | EC50 [2] [nM]
1 | COC(=O)N[C@H](C(=O)N1CCC[C@H]1c1ncc(-c2ccc(-c3ccc(-c4cnc([C@@H]5CC6(CN5C(=O)[C@@H](NC(=O)OC)C(C)C)CC(F)(F)C6)[nH]4)cc3)cc2)[nH]1)C(C)C [Example 29, methyl [(1S)-1-({(2S)-2-[4-(4′-{2-[(7S)-2,2-difluoro-6-((2S)-3-methyl-2-{[(methyloxy)carbonyl]amino}butanoyl)-6-azaspiro[3.4]oct-7-yl]-1H-imidazol-4-yl}-4-biphenylyl)-1H-imidazol-2-yl]-1-pyrrolidinyl}carbonyl)-2-methylpropyl]carbamate] | 0.1 | 0.00316
2 | COC(=O)N[C@H](C(=O)N1CCC[C@H]1c1ncc(-c2ccc(-c3ccc(-c4cnc(C5CCC6(CCOCC6)N5C(=O)[C@@H](NC(=O)OC)C(C)C)[nH]4)cc3)cc2)[nH]1)C(C)C (stereo partly drawn) [Example 30, methyl [(1S)-2-methyl-1-({(2S)-2-[4-(4′-{2-[1-((2S)-3-methyl-2-{[(methyloxy)carbonyl]amino}butanoyl)-8-oxa-1-azaspiro[4.5]dec-2-yl]-1H-imidazol-4-yl}-4-biphenylyl)-1H-imidazol-2-yl]-1-pyrrolidinyl}carbonyl)propyl]carbamate] | 1.58 | 0.0631
3 | COC(=O)N[C@H](C(=O)N1CCC[C@H]1c1ncc(-c2ccc(-c3ccc(-c4cnc(C5CCC6(CCOCC6)N5C(C)=O)[nH]4)cc3)cc2)[nH]1)C(C)C (stereo partly drawn) [Example 31, methyl ((1S)-1-{[(2S)-2-(4-{4′-[2-(1-acetyl-8-oxa-1-azaspiro[4.5]dec-2-yl)-1H-imidazol-4-yl]-4-biphenylyl}-1H-imidazol-2-yl)-1-pyrrolidinyl}carbonyl]-2-methylpropyl)carbamate] | 0.316 | 0.0126
4 | COC(=O)N[C@H](C(=O)N1CCC[C@H]1c1ncc(-c2ccc(-c3ccc(-c4c[nH]c(C5CCC6(CCC(F)(F)CC6)N5C(=O)[C@@H](NC(=O)OC)C(C)C)n4)cc3)cc2)[nH]1)C(C)C (stereo partly drawn) [Example 32, methyl [(1S)-1-({(2S)-2-[4-(4′-{2-[8,8-difluoro-1-((2S)-3-methyl-2-{[(methyloxy)carbonyl]amino}butanoyl)-1-azaspiro[4.5]dec-2-yl]-1H-imidazol-4-yl}-4-biphenylyl)-1H-imidazol-2-yl]-1-pyrrolidinyl}carbonyl)-2-methylpropyl]carbamate] | 1.58 | 0.0158
5 | CC[C@H](NC(=O)OC)C(=O)N1C(c2nc(-c3ccc(-c4ccc(-c5cnc([C@@H]6CCCN6C(=O)[C@@H](NC(=O)OC)C(C)C)[nH]5)cc4)cc3)c[nH]2)CCC12CCC(F)(F)CC2 (stereo partly drawn) [Example 33, methyl [(1S)-1-({8,8-difluoro-2-[4-(4′-{2-[(2S)-1-((2S)-3-methyl-2-{[(methyloxy)carbonyl]amino}butanoyl)-2-pyrrolidinyl]-1H-imidazol-4-yl}-4-biphenylyl)-1H-imidazol-2-yl]-1-azaspiro[4.5]dec-1-yl}carbonyl)propyl]carbamate] | 1 | 0.0158
6 | COC(=O)N[C@@H](C)C(=O)N1C(c2nc(-c3ccc(-c4ccc(-c5cnc([C@@H]6CCCN6C(=O)[C@@H](NC(=O)OC)C(C)C)[nH]5)cc4)cc3)c[nH]2)CCC12CCC(F)(F)CC2 (stereo partly drawn) [Example 34, methyl ((1S)-2-{8,8-difluoro-2-[4-(4′-{2-[(2S)-1-((2S)-3-methyl-2-{[(methyloxy)carbonyl]amino}butanoyl)-2-pyrrolidinyl]-1H-imidazol-4-yl}-4-biphenylyl)-1H-imidazol-2-yl]-1-azaspiro[4.5]dec-1-yl}-1-methyl-2-oxoethyl)carbamate] | 0.631 | 0.01
7 | COC(=O)N[C@@H](CC(C)C)C(=O)N1C(c2nc(-c3ccc(-c4ccc(-c5cnc([C@@H]6CCCN6C(=O)[C@@H](NC(=O)OC)C(C)C)[nH]5)cc4)cc3)c[nH]2)CCC12CCC(F)(F)CC2 (stereo partly drawn) [Example 35, methyl [(1S)-1-({8,8-difluoro-2-[4-(4′-{2-[(2S)-1-((2S)-3-methyl-2-{[(methyloxy)carbonyl]amino}butanoyl)-2-pyrrolidinyl]-1H-imidazol-4-yl}-4-biphenylyl)-1H-imidazol-2-yl]-1-azaspiro[4.5]dec-1-yl}carbonyl)-3-methylbutyl]carbamate] | 2 | 0.0126
8 | COC(=O)N[C@H](C(=O)N1CCC[C@H]1c1ncc(-c2ccc(-c3ccc(-c4c[nH]c(C5CCC6(CCC(F)(F)CC6)N5C(C)=O)n4)cc3)cc2)[nH]1)C(C)C (stereo partly drawn) [Example 36, methyl ((1S)-1-{[(2S)-2-(4-{4′-[2-(1-acetyl-8,8-difluoro-1-azaspiro[4.5]dec-2-yl)-1H-imidazol-4-yl]-4-biphenylyl}-1H-imidazol-2-yl)-1-pyrrolidinyl]carbonyl}-2-methylpropyl)carbamate] | 25.1 | 0.1
9 | COC(=O)N[C@H](C(=O)N1CCC[C@H]1c1ncc(-c2ccc(-c3ccc(-c4c[nH]c(C5CCC6(CCS(=O)(=O)CC6)N5C(=O)[C@@H](NC(=O)OC)C(C)C)n4)cc3)cc2)[nH]1)C(C)C (stereo partly drawn) [Example 37, methyl [(1S)-2-methyl-1-({(2S)-2-[4-(4′-{2-[1-((2S)-3-methyl-2-{[(methyloxy)carbonyl]amino}butanoyl)-8,8-dioxido-8-thia-1-azaspiro[4.5]dec-2-yl]-1H-imidazol-4-yl}-4-biphenylyl)-1H-imidazol-2-yl]-1-pyrrolidinyl}carbonyl)propyl]carbamate] | 12.6 | 0.316
